In PubChem BioAssay (NCI):
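Cultured in 96-well plates, cells were exposed to test compound for 48 hours across five concentrations. TGI: total growth inhibition.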

Legend:
Test in all cases: NCI anticancer screen, dose series, 48 h
ACHN renal = test system: ACHN renal
SK-OV-3 ovarian = test system: SK-OV-3 ovarian
PC-3 prostate = test system: PC-3 prostate
SF-268 CNS = test system: SF-268 CNS
MDA-MB-231 breast = test system: MDA-MB-231 breast
SNB-19 CNS = test system: SNB-19 CNS
M14 melanoma = test system: M14 melanoma
K-562 leukemia = test system: K-562 leukemia
HT29 colon = test system: HT29 colon
A549 NSCLC = test system: A549 NSCLC
MCF7 breast = test system: MCF7 breast
SR leukemia = test system: SR leukemia
RXF 393 renal = test system: RXF 393 renal
CCRF-CEM leukemia = test system: CCRF-CEM leukemia
EKVX NSCLC = test system: EKVX NSCLC
786-0 renal = test system: 786-0 renal
T-47D breast = test system: T-47D breast
OVCAR-3 ovarian = test system: OVCAR-3 ovarian
SF-295 CNS = test system: SF-295 CNS
MALME-3M melanoma = test system: MALME-3M melanoma
SW-620 colon = test system: SW-620 colon
HCT-116 colon = test system: HCT-116 colon
OVCAR-4 ovarian = test system: OVCAR-4 ovarian
SK-MEL-5 melanoma = test system: SK-MEL-5 melanoma
NCI-H460 lung = test system: NCI-H460 lung
HCC-2998 colon = test system: HCC-2998 colon
SN12C renal = test system: SN12C renal
NCI-H522 lung = test system: NCI-H522 lung
MDA-MB-435 = test system: MDA-MB-435
DU-145 prostate = test system: DU-145 prostate
CAKI-1 renal = test system: CAKI-1 renal
HOP-62 NSCLC = test system: HOP-62 NSCLC
SF-539 CNS = test system: SF-539 CNS
HCT-15 colon = test system: HCT-15 colon
COLO 205 colon = test system: COLO 205 colon
NCI/ADR-RES ovarian = test system: NCI/ADR-RES ovarian
OVCAR-8 ovarian = test system: OVCAR-8 ovarian
TK-10 renal = test system: TK-10 renal
UACC-257 melanoma = test system: UACC-257 melanoma
IGROV1 ovarian = test system: IGROV1 ovarian
MOLT-4 leukemia = test system: MOLT-4 leukemia
UO-31 renal = test system: UO-31 renal
HS 578T breast = test system: HS 578T breast
BT-549 breast = test system: BT-549 breast
NCI-H23 lung = test system: NCI-H23 lung
HL-60(TB) leukemia = test system: HL-60(TB) leukemia
MDA-N = test system: MDA-N
OVCAR-5 ovarian = test system: OVCAR-5 ovarian
LOX IMVI melanoma = test system: LOX IMVI melanoma
UACC-62 melanoma = test system: UACC-62 melanoma
SK-MEL-2 melanoma = test system: SK-MEL-2 melanoma
SNB-75 CNS = test system: SNB-75 CNS
KM12 colon = test system: KM12 colon

Q: How did the TGI (ACHN renal) turn out when CCNCCNc1c2ccccc2nc2ccccc12 was run?
A: 1370 nM

Q: What about the TGI (SK-OV-3 ovarian) of the same compound?
A: 12.2 µM

Q: And the TGI (PC-3 prostate)?
A: 3.95 µM

Q: What about the TGI (SF-268 CNS) of the same compound?
A: 5.52 µM

Q: What about the TGI (MDA-MB-231 breast) of the same compound?
A: 3.02 µM

Q: What about the TGI (SNB-19 CNS) of the same compound?
A: 4.69 µM

Q: And the TGI (M14 melanoma)?
A: 3.05 µM

Q: And the TGI (K-562 leukemia)?
A: 5.66 µM

Q: What about the TGI (HT29 colon) of the same compound?
A: > 100 µM

Q: And the TGI (A549 NSCLC)?
A: 4.95 µM

Q: What about the TGI (MCF7 breast) of the same compound?
A: 3.4 µM

Q: And the TGI (SR leukemia)?
A: 4.18 µM

Q: And the TGI (RXF 393 renal)?
A: 3.31 µM

Q: And the TGI (CCRF-CEM leukemia)?
A: 8.63 µM

Q: What about the TGI (EKVX NSCLC) of the same compound?
A: 21.9 µM

Q: What about the TGI (786-0 renal) of the same compound?
A: 13.4 µM

Q: And the TGI (T-47D breast)?
A: 8.41 µM

Q: And the TGI (OVCAR-3 ovarian)?
A: 24.5 µM

Q: And the TGI (SF-295 CNS)?
A: 3.3 µM

Q: What about the TGI (MALME-3M melanoma) of the same compound?
A: 4.6 µM

Q: What about the TGI (SW-620 colon) of the same compound?
A: 2840 nM

Q: And the TGI (HCT-116 colon)?
A: 7.99 µM

Q: And the TGI (OVCAR-4 ovarian)?
A: 11.1 µM

Q: What about the TGI (SK-MEL-5 melanoma) of the same compound?
A: 7.41 µM

Q: What about the TGI (NCI-H460 lung) of the same compound?
A: 1540 nM

Q: What about the TGI (HCC-2998 colon) of the same compound?
A: 1090 nM

Q: And the TGI (SN12C renal)?
A: 4.91 µM

Q: And the TGI (NCI-H522 lung)?
A: 4.69 µM

Q: What about the TGI (MDA-MB-435) of the same compound?
A: 2590 nM

Q: And the TGI (DU-145 prostate)?
A: 7.42 µM

Q: What about the TGI (CAKI-1 renal) of the same compound?
A: 3.48 µM

Q: And the TGI (HOP-62 NSCLC)?
A: 4.21 µM

Q: And the TGI (SF-539 CNS)?
A: 2210 nM

Q: And the TGI (HCT-15 colon)?
A: 5.83 µM

Q: What about the TGI (COLO 205 colon) of the same compound?
A: 3.42 µM

Q: What about the TGI (NCI/ADR-RES ovarian) of the same compound?
A: 19.5 µM

Q: What about the TGI (OVCAR-8 ovarian) of the same compound?
A: 7.06 µM

Q: What about the TGI (TK-10 renal) of the same compound?
A: 23.3 µM

Q: And the TGI (UACC-257 melanoma)?
A: 3.46 µM

Q: And the TGI (IGROV1 ovarian)?
A: 9.82 µM

Q: What about the TGI (MOLT-4 leukemia) of the same compound?
A: > 100 µM

Q: What about the TGI (UO-31 renal) of the same compound?
A: 5.02 µM

Q: What about the TGI (HS 578T breast) of the same compound?
A: 5.28 µM

Q: What about the TGI (BT-549 breast) of the same compound?
A: 10.2 µM

Q: What about the TGI (NCI-H23 lung) of the same compound?
A: 3.36 µM

Q: What about the TGI (HL-60(TB) leukemia) of the same compound?
A: > 100 µM

Q: What about the TGI (MDA-N) of the same compound?
A: 2810 nM

Q: What about the TGI (OVCAR-5 ovarian) of the same compound?
A: 7.62 µM

Q: What about the TGI (LOX IMVI melanoma) of the same compound?
A: 2950 nM

Q: What about the TGI (UACC-62 melanoma) of the same compound?
A: 3.26 µM

Q: What about the TGI (SK-MEL-2 melanoma) of the same compound?
A: 3.63 µM

Q: And the TGI (SNB-75 CNS)?
A: 3.52 µM

Q: What about the TGI (KM12 colon) of the same compound?
A: 4.79 µM
